Six compounds from BindingDB's records for patent US11352356 (Takeda Pharmaceutical Company Limited, 2022) can be followed below.

Sequence of Plasma kallikrein (P03952 20-390 S143N limits assumed): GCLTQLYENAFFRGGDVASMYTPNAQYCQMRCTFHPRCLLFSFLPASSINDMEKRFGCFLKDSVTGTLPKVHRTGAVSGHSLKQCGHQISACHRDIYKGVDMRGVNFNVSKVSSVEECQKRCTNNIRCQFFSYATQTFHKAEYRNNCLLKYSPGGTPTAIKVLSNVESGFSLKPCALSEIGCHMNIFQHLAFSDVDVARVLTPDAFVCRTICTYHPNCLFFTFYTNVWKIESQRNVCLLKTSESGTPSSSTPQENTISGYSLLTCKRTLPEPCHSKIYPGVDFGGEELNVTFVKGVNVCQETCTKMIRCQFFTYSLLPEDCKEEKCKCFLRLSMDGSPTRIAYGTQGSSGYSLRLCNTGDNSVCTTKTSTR
Sequence of Plasma kallikrein (P03952 391-638 limits assumed): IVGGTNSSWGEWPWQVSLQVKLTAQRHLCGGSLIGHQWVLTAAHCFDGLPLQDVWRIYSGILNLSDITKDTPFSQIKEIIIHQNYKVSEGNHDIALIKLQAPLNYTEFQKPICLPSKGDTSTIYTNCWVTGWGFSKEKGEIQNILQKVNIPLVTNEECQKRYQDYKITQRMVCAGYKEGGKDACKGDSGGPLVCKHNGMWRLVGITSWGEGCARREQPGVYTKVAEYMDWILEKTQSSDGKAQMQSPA

This assay addresses Plasma kallikrein (Human, UniProt P03952). Nature of the assay: Inhibitory Activity Assay. On the procedure: Example compounds were evaluated for inhibition of the human activated kallikrein enzyme in two formats of an assay employing a fluorogenic peptide substrate. In one assay format, the concentrations of reagents were as follows: 20 mM Tris pH 7.5, 1 mM EDTA, 150 mM sodium chloride, 0.1% PEG-400, 0.1% Triton X-100, 500 pM activated kallikrein enzyme, 300 uM Pro-Phe-Arg-7-amido-4-methylcoumarin substrate. Prior to reaction initiation with substrate, enzyme and inhibitors were preincubated for 30 min at RT. After initiation with substrate, reactions were incubated for 10 min at RT and fluorescence emission at 460 nm from 380 nm excitation measured with a microplate reader. In another assay format, the concentrations of reagents were as follows: 20 mM Tris pH 7.5, 1 mM EDTA, 150 mM sodium chloride, 0.1% PEG-400, 0.1% Triton X-100, 5 pM activated kallikrein enzyme, 300 uM Pro-Phe-Arg-7-amido-4-methylcoumarin substrate. Prior to reaction initiation with substrate, enzyme and inhibitors were preincubated for 30 min at RT. After initiation with substrate, reactions were incubated for 18 h at RT and fluorescence emission at 460 nm from 380 nm excitation measured with a microplate reader.
Compound `O=C(NCc1ncn2ccc(Cl)cc12)c1cnn(Cc2cn3ccc(C4CC4)c(F)c3n2)c1` [US11352356, Compound I-144] gave an EC50 of less than 1 nM.

The compound `CCOC(COCc1cc(C2CC2)cn2cc(Cn3cc(C(=O)NCc4ncn5ccc(Cl)c(F)c45)nn3)nc12)OCC` [US11352356, Compound I-301] displayed an EC50 of less than 1 nM.

For the compound `CC(C)(C)[S+]([O-])NCCOCc1cc(C2CC2)cn2cc(Cn3cc(C(=O)NCc4ncn5ccc(Cl)c(F)c45)nn3)nc12` (stereo unspecified) [US11352356, Compound I-302], the EC50 was less than 1 nM.

The compound `O=C(NCc1ncn2ccc(Cl)c(F)c12)c1cn(Cc2cn3ccc(C4CC4)cc3n2)nn1` [US11352356, Compound I-148] registered an EC50 of less than 1 nM.

For the compound `COC(=O)c1cnn(-c2cc(C3CC3)cn3cc(Cn4cc(C(=O)NCc5ncn6ccc(Cl)c(F)c56)nn4)nc23)c1` [US11352356, Compound I-230], the EC50 is less than 1 nM.

Take `CC(C)(C)OC(=O)C(C)(C)Oc1cc(C2CC2)cn2cc(Cn3cc(C(=O)NCc4ncn5ccc(Cl)c(F)c45)nn3)nc12` [US11352356, Compound I-212]: the EC50 is less than 1 nM.

The EC50 is the concentration that produces a half-maximal response. A low value points to greater potency.
